In US20070237734A1, “ANTI-WRINKLE COSMETIC COMPOSITION” (L'OREAL, priority 2006, published 2007):

Tested on: normal human fibroblasts
Test: Dermo-decontracting effect on dermal equivalent model (collagen matrix inoculated with fibroblasts), spontaneous contraction
Assay type: cell-based
Settings: for % contraction: test compound 10 μM, dermal equivalent surface area at 0, 4, 8 and 24 hours, with respect to the control
Description: The principle of this test consists in studying the effect of the test product on a dermal equivalent model composed of a collagen matrix inoculated with normal human fibroblasts.
These conditions are intended to mimic in vitro the dermal contractile phenomena which occur during facial expressions. This is because, under these conditions, the cells spontaneously express tensile forces which induce retraction of the collagen gel. […] The measurement of this surface area makes it possible to evaluate the relaxing effects of the substances brought into contact beforehand with the dermal equivalent.
Two series of attached dermal equivalents comprising normal human fibroblasts are prepared: a control series without any treatment and a series treated with the test compound (10 μM). The experiment is repeated three times.
The dermal equivalents are prepared as described in Asselineau et al., Exp. Cell. Res., 1985, 159, 536-539; Models in Dermatology, 1987, vol. 3, pp. 1-7, in the following proportions:
The treated dermal equivalent differs from the control dermal equivalent in that 10 μM of the test compound are added thereto.
The collagen used is type I collagen (commercial solution). It is extracted from calf skin by acid hydrolysis and stored in an acidic medium at +4° C. It polymerizes naturally by reheating to 37° C. and by decreasing the degree of acidity. The collagen is dialysed beforehand against successive baths of water+acetic acid.
The protocol is as follows: the 1.76×MEM medium is introduced, in the presence of additives (1% glutamine, 1% non-essential amino acids, 1% sodium pyruvate, 1% fungizone and 1% penicillin/streptomycin), the foetal calf serum and the 0.1N NaOH solution, into a 50 ml centrifuge tube stored in crushed ice. The fibroblasts, isolated from human skin explants, are then added at the concentration of 1.5×10^5 cells per 1 ml of culture medium.
A volume/volume mixture of collagen in acetic acid at 1/1000 is then slowly added, against the wall of the tube, so as to observe the appearance of a whitish cloud.
The combined product is then carefully mixed and distributed in the wells of a 12-well culture plate (Costar type, reference 3512) in a proportion of 2 ml of mixture per well. The final cell concentration is […], with a final concentration of collagen of 1 mg/ml. The culture plate is then placed in an incubator at 37° C. with 5% CO2.
Once formed after polymerization of the collagen, the dermal equivalents are left adhered to the culture support for 3 days and then detached from the support so that the contraction can begin. These detached dermal equivalents are taken out of the incubator in order to take images for the purpose of measuring their surface area, this being for each point of the kinetics of contraction (0, 4, 8 and 24 hours). They are immediately placed back in the incubator between each measurement point.
The evaluation of the spontaneous contraction of the treated (with the test compound) and control (without test compound) dermal equivalents is carried out by measuring their surface area at the different times mentioned after the beginning of the spontaneous contraction.
For this, a digital image is acquired for each treated or untreated dermal equivalent by means of a camera (CCD camera-Iris Sony DXC-107P) and the surface area is subsequently calculated on each image by means of an image analysis system (Zeiss Axiovision 3.0). […]

Row | SMILES | % contraction | reduce the contraction of the fibroblasts, on average over the duration of the experiment, with respect to the control (tested at 10 μM)
1 | CCOC[C@H]1O[C@@H](n2cnc3c(N)ncnc32)[C@@H]2OC(C)(C)O[C@@H]21 [Compound D, 2′,3′-isopropylidene-5′-ethyladenosine] | −21% | 
2 | Nc1ncnc2c1ncn2[C@@H]1O[C@H](CO)[C@@H](O)[C@H]1O [Adenosine, reference compound] | −15% | 15%
3 | CCCCCCCCOC[C@H]1O[C@@H](n2cnc3c(N)ncnc32)[C@@H]2OC(C)(C)O[C@@H]21 [Compound E, 2′,3′-isopropylidene-5′-octyladenosine] | −26% | 
4 | CC(=O)OC[C@H]1O[C@@H](n2cnc3c(N)ncnc32)[C@@H]2OC(C)(C)O[C@@H]21 [Compound G, 2′,3′-isopropylidene-5′-acetyladenosine] | −30% | 
